# Measurements taken from patent EP4549575A1 (priority 2023, dated 2025).
# Square brackets hold non-standard residues; d marks the D form. Peptide text beside a SMILES is read from it. * marks the point of attachment. hCys = N[C@@H](CCS)C(=O)O; βAla = NCCC(=O)O; CF3 = FC(F)(F)*
# System: P. infestans
# Assay: not given
# Type: cell-based
# Conditions: 200 µM; P. infestans mycelium; peptidomimetics
row,Compound,PPI (%) ± Std. Dev.
1,"CC(C)C[C@H](NC(=O)[C@H](CCSC(F)(F)F)NC(=O)[C@H](Cc1c[nH]c2ccccc12)NC(=O)[C@H](CCCNC(=N)N)NC(=O)CCN)C(=O)N[C@H](C(=O)N[C@@H](Cc1ccc(O)cc1)C(=O)N[C@@H](CCCNC(=N)N)C(=O)N[C@@H](CCCNC(=N)N)C(N)=O)C(C)C [LR131, H2N-βA-RW-MCF3-LVYRR-CONH2] (H-[βAla]RW[hCys](CF3)LVYRR-NH2)",85.32 ± 5.19 (b) %
2,"CSCC[C@H](NC(=O)[C@@H](Cc1c[nH]c2ccccc12)NC(=O)[C@@H](CCCNC(=N)N)NC(=O)CCN)C(=O)N[C@@H](CC(C)C)C(=O)N[C@H](C(=O)N[C@H](Cc1ccc(O)cc1)C(=O)N[C@@H](CCCNC(=N)N)C(=O)N[C@H](CCCNC(=N)N)C(N)=O)C(C)C [LR202, H2N-βA-(D)R-(D)W-MLV-(D)Y-R-(D)R-CONH2] (H-[βAla][dR][dW]MLV[dY]R[dR]-NH2)",78.26 ± 0 (b) %
3,"CSCC[C@H](NC(=O)[C@@H](Cc1c[nH]c2ccccc12)NC(=O)[C@@H](CCCNC(=N)N)NC(=O)CCN)C(=O)N[C@@H](CC(C)C)C(=O)N[C@H](C(=O)N[C@H](Cc1ccc(O)cc1)C(=O)N[C@@H](CCCNC(=N)N)C(=O)N[C@@H](CCCNC(=N)N)C(N)=O)C(C)C [LR206, H2N-βA-(D)R-(D)W-MLV-(D)Y-RR-CONH2] (H-[βAla][dR][dW]MLV[dY]RR-NH2)",81.52 ± 5.47 (b) %
4,"H2N-βA-RWM-hL-VYRR-CONH2 (H-[βAla]RWMXVYRR-NH2; not fully specified (residue 5); printed as H2N-βA-RWM-hL-VYRR-CONH2) [LR193, hydrazino-Leu analogue]",79.35 ± 5.47 (b) %

# Same assay, conditions: 200 µM; P. infestans mycelium; solid medium; linear vs cyclic peptides (Figure 8)
row,Compound,PPI [%]
1,CSCC[C@H](NC(=O)[C@H](Cc1c[nH]c2ccccc12)NC(=O)[C@H](CCCNC(=N)N)NC(=O)CCN)C(=O)N[C@@H](CC(C)C)C(=O)N[C@H](C(=O)N[C@@H](Cc1ccc(O)cc1)C(=O)N[C@@H](CCCNC(=N)N)C(=O)N[C@@H](CCCNC(=N)N)C(N)=O)C(C)C [LP20] (H-[βAla]RWMLVYRR-NH2),72.78
2,CC(C)C[C@H](NC(=O)[C@H](CCCNC(=N)N)NC(=O)CNC(=O)CCN)C(=O)N[C@@H](CCCNC(=N)N)C(=O)N[C@@H](Cc1c[nH]c2ccccc12)C(=O)N[C@@H](CC(C)C)C(=O)N[C@@H](CCCNC(=N)N)C(=O)N[C@H](C(N)=O)C(C)C [LP32] (H-[βAla]GRLRWLRV-NH2),76.97

# Same assay, conditions: Ala-scan of Ac-LP20 and CP20-Met-Ala; P. infestans mycelium in vitro
row,Compound,PPI (%) mycelium [%]
1,"CSCC[C@H](NC(=O)[C@H](Cc1c[nH]c2ccccc12)NC(=O)[C@H](C)NC(=O)CCNC(C)=O)C(=O)N[C@@H](CC(C)C)C(=O)N[C@H](C(=O)N[C@@H](Cc1ccc(O)cc1)C(=O)N[C@@H](CCCNC(=N)N)C(=O)N[C@@H](CCCNC(=N)N)C(N)=O)C(C)C [Ac-LP20-Ala2, Ac-βA-AWMLVYRR-CONH2] (Ac-[βAla]AWMLVYRR-NH2)",38.75 ± 7.72
2,"CSCC[C@H](NC(=O)[C@H](C)NC(=O)[C@H](CCCNC(=N)N)NC(=O)CCNC(C)=O)C(=O)N[C@@H](CC(C)C)C(=O)N[C@H](C(=O)N[C@@H](Cc1ccc(O)cc1)C(=O)N[C@@H](CCCNC(=N)N)C(=O)N[C@@H](CCCNC(=N)N)C(N)=O)C(C)C [Ac-LP20-Ala3, Ac-βA-RAMLVYRR-CONH2] (Ac-[βAla]RAMLVYRR-NH2)",100 ± 0
3,"CSCC[C@H](NC(=O)[C@H](Cc1c[nH]c2ccccc12)NC(=O)[C@H](CCCNC(=N)N)NC(=O)CCNC(C)=O)C(=O)N[C@@H](C)C(=O)N[C@H](C(=O)N[C@@H](Cc1ccc(O)cc1)C(=O)N[C@@H](CCCNC(=N)N)C(=O)N[C@@H](CCCNC(=N)N)C(N)=O)C(C)C [Ac-LP20-Ala5, Ac-βA-RWMAVYRR-CONH2] (Ac-[βAla]RWMAVYRR-NH2)",70.73 ± 0
4,"CSCC[C@H](NC(=O)[C@H](Cc1c[nH]c2ccccc12)NC(=O)[C@H](CCCNC(=N)N)NC(=O)CCNC(C)=O)C(=O)N[C@@H](CC(C)C)C(=O)N[C@@H](C)C(=O)N[C@@H](Cc1ccc(O)cc1)C(=O)N[C@@H](CCCNC(=N)N)C(=O)N[C@@H](CCCNC(=N)N)C(N)=O [Ac-LP20-Ala6, Ac-βA-RWMLAYRR-CONH2] (Ac-[βAla]RWMLAYRR-NH2)",62.2 ± 7.54
5,"CSCC[C@H](NC(=O)[C@H](Cc1c[nH]c2ccccc12)NC(=O)[C@H](CCCNC(=N)N)NC(=O)CCNC(C)=O)C(=O)N[C@@H](CC(C)C)C(=O)N[C@H](C(=O)N[C@@H](C)C(=O)N[C@@H](CCCNC(=N)N)C(=O)N[C@@H](CCCNC(=N)N)C(N)=O)C(C)C [Ac-LP20-Ala7, Ac-βA-RWMLVARR-CONH2] (Ac-[βAla]RWMLVARR-NH2)",17.48 ± 12.34

# System: pronase
# Assay: Stability towards proteolysis (pronase, LC-MS)
# Type: in vitro ADME, Streptomyces griseus
# Conditions: peptide 200 µM; protease 5 µg/mL; 37°C; pH 7.5
# Description: The evaluation of the stability of CP20 and Ac-LP20 towards proteolysis was tested at a peptide concentration of 200 µM using pronase (commercially available mixture of proteases isolated from the extracellular fluid of Streptomyces griseus, 2.5 µg/mg). Another peptide was added to this analysis, namely LP20 (without N-terminal acetylation), as it is easier to synthesize and to also assess the influence of N-terminal acetylation on the stability of LP20. Each peptide was tested in the presence of the protease (5 µg/mL) at 37°C in a buffer solution (50 mM Tris, 10 mM CaCl2, 150 mM NaCl, 0.05 % (w/v) Brij 35, pH 7.5) and its stability monitored by liquid chromatography coupled to mass spectrometry (LC-MS) at different time intervals (t=0 min, 10 min, 30 min, 1 h, 2 h). To stop enzyme activity, a small amount of the solution (60 µL) was transferred to an HPLC vial containing 6 µL of a 10% TFA solution at these different time points.
row,Compound,time of total proteolysis of the peptide [min]
1,CSCC[C@H](NC(=O)[C@H](Cc1c[nH]c2ccccc12)NC(=O)[C@H](CCCNC(=N)N)NC(=O)CCN)C(=O)N[C@@H](CC(C)C)C(=O)N[C@H](C(=O)N[C@@H](Cc1ccc(O)cc1)C(=O)N[C@@H](CCCNC(=N)N)C(=O)N[C@@H](CCCNC(=N)N)C(N)=O)C(C)C [LP20] (H-[βAla]RWMLVYRR-NH2),10
2,CC(C)C[C@H](NC(=O)[C@H](CCCNC(=N)N)NC(=O)CNC(=O)CCN)C(=O)N[C@@H](CCCNC(=N)N)C(=O)N[C@@H](Cc1c[nH]c2ccccc12)C(=O)N[C@@H](CC(C)C)C(=O)N[C@@H](CCCNC(=N)N)C(=O)N[C@H](C(N)=O)C(C)C [LP32] (H-[βAla]GRLRWLRV-NH2),10

# Same assay, conditions: peptide 200 µM; protease 5 µg/mL; 37°C; pH 7.5; 0-2 h
row,Compound,stability against proteolysis
1,CSCC[C@H](NC(=O)[C@H](Cc1c[nH]c2ccccc12)NC(=O)[C@H](CCCNC(=N)N)NC(=O)CCN)C(=O)N[C@@H](CC(C)C)C(=O)N[C@H](C(=O)N[C@@H](Cc1ccc(O)cc1)C(=O)N[C@@H](CCCNC(=N)N)C(=O)N[C@@H](CCCNC(=N)N)C(N)=O)C(C)C [LP20] (H-[βAla]RWMLVYRR-NH2),Low stability
2,CC(C)C[C@H](NC(=O)[C@H](CCCNC(=N)N)NC(=O)CNC(=O)CCN)C(=O)N[C@@H](CCCNC(=N)N)C(=O)N[C@@H](Cc1c[nH]c2ccccc12)C(=O)N[C@@H](CC(C)C)C(=O)N[C@@H](CCCNC(=N)N)C(=O)N[C@H](C(N)=O)C(C)C [LP32] (H-[βAla]GRLRWLRV-NH2),low stability
